Assay results published in ChEMBL document CHEMBL1140730, “Validation of diacyl glycerolacyltransferase I as a novel target for the treatment of obesity and dyslipidemia using a potent and selective small molecule inhibitor” (J Med Chem, 2008).

Columns and labels:
[1] = molecular target: T1, Diacylglycerol O-acyltransferase 1 (Mus musculus, UniProt Q9Z2A7); assay: Inhibition of mouse recombinant DGAT1 expressed in Sf9 cells
T1 sequence (Q9Z2A7 whole entry): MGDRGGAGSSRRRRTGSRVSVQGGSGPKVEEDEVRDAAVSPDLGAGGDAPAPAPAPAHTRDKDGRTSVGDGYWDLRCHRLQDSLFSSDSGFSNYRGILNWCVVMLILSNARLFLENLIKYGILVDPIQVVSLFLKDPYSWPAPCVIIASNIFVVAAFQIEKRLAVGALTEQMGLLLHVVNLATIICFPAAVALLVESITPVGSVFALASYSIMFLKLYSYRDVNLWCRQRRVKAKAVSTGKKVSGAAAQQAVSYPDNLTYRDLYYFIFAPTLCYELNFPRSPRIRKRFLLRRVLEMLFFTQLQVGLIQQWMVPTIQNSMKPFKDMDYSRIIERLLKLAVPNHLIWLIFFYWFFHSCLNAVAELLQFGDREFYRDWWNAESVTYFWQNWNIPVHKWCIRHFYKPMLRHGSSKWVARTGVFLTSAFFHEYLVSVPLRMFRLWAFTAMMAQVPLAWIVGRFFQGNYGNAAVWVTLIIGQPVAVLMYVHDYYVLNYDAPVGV

[2] = molecular target: T2, Diacylglycerol O-acyltransferase 1 (Homo sapiens, UniProt O75907); assay: Inhibition of human recombinant DGAT1 expressed in Sf9 cells
T2 sequence (O75907 whole entry): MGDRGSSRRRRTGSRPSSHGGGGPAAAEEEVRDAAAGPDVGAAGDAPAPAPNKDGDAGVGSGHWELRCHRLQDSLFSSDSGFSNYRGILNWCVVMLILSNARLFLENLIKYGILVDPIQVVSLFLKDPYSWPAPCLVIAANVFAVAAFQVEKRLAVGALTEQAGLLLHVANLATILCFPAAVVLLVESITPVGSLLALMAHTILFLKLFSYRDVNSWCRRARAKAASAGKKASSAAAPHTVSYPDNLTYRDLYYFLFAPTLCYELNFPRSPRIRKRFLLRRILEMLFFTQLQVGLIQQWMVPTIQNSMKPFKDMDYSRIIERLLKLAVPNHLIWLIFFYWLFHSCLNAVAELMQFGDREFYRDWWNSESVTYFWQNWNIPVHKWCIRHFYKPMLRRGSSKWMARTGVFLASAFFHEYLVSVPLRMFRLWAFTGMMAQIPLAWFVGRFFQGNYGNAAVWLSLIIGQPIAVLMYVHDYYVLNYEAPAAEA

Compound	IC50 [1] [nM]	IC50 [2] [nM]
O=C(Nc1ccc(-c2ccc(C(=O)[C@@H]3CCC[C@H]3C(=O)O)cc2)cc1)Nc1cc(C(F)(F)F)ccc1F	21	–
O=C(Nc1ccc(-c2ccc(C(=O)[C@@H]3CCC[C@H]3C(=O)O)cc2)cc1)Nc1cccc(C(F)(F)F)c1	17	–
O=C(Nc1ccccc1)Nc1ccc(-c2ccc(C(=O)[C@@H]3CCC[C@@H]3C(=O)O)cc2)cc1	–	98
O=C(Nc1ccc(-c2ccc(C(=O)[C@@H]3CCC[C@H]3C(=O)O)cc2)cc1)Nc1ccccc1C(F)(F)F	16	–

Results, then the molecule that gave them:

IC50 [1] [nM]	IC50 [2] [nM]	Compound
39	–	O=C(Nc1ccc(-c2ccc(C(=O)[C@@H]3CCC[C@H]3C(=O)O)cc2)cc1)Nc1cccc(F)c1
19	–	O=C(Nc1ccc(-c2ccc(C(=O)[C@@H]3CCC[C@H]3C(=O)O)cc2)cc1)Nc1cccc(Cl)c1
